According to US20060068007A1, “Class of surfactant-like materials” (Boehringer Ingelheim Pharmaceuticals, Inc., priority 2004, published 2006):

Assay: Solubility of the active agent depending on pH
Format: physicochemical
Conditions: basic conditions
Procedure: The tablets were prepared similarly as described in Example 3.

## COc1ccc2c(O[C@@H]3C[C@H]4C(=O)N[C@]5(C(=O)O)CC5/C=C\CCCCC[C@H](NC(=O)OC5CCCC5)C(=O)N4C3)cc(-c3csc(NC(C)C)n3)nc2c1 (stereo partly drawn) [(Z)-(1S,4R,14S,18R)-14-Cyclopentyloxycarbonylamino-18-[2-(2-isopropylamino-thiazol-4-yl)-7-methoxy-quinolin-4-yloxy]-2,15-dioxo-3,16-diaza-tricyclo[14.3.0.0^4,6]nonadec-7-ene-4-carboxylic acid]
  solubility: higher solubility in basic conditions
